The text below walks through data of patent publication US20030086868A1, “Actinium-225 complexes and conjugates for radioimmunotherapy” (priority 2002, published 2003).

For series [1] the following is noted: in vivo; cited from earlier work.
For series [2], the system named is antigen positive cell line. The experiment in a line: In-vitro cell kill (3H-thymidine incorporation), antigen positive cell line. It counts as cell-based.
Series [3] in a line: In vivo biodistribution in nu/nu mice. Conditions: for 225Ac Biodistribution, Blood / 225Ac Biodistribution, Bone / 225Ac Biodistribution, Kidneys / 225Ac Biodistribution, Liver: average; for pattern of distribution: intraperitoneal, approx. 2 μCi, nu/nu mice, period of 5 days.
Experimental: Counting was carried out half an hour after sample preparation.
The target of series [4] is T1, antigen excess (HuM195 is anti-CD33) (Homo sapiens, UniProt P20138).
T1 construct: host or cells: unnamed antigen-bearing cells
T1 sequence (P20138 18-364): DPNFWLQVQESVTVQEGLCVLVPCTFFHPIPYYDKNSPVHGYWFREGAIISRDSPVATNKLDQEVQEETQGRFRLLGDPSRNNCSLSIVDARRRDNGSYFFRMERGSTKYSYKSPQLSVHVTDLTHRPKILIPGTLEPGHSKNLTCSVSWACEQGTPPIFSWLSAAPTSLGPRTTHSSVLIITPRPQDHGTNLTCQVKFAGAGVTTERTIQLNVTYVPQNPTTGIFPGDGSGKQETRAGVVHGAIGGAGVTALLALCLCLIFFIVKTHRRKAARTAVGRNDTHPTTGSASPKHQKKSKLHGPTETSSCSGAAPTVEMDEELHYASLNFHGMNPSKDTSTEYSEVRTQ
The experiment in a line: Cell-based immunoreactivity study (binding of labeled antibody to antigen excess).

In series [5] the test system is target cells. In words: Internalization of isotope into target cells. The format is cell-based. The settings on record: in 5 hours.
The test system of series [6] is antigen negative cell line. In words: In-vitro cell kill (3H-thymidine incorporation), antigen negative cell line. It counts as cell-based.

As for `O=P(O)(O)CN(CCN(CP(=O)(O)O)CP(=O)(O)O)CP(=O)(O)O` [^225Ac-EDTMP, ethylenediaminetetra-methylenephosphonic acid, metal not drawn], in series [1], the excretion result is on record as “poor” and the liver uptake entry was “still substantial”.

In the case of ^225Ac-HuM195-MeO-DOTA, the “LD50 in a 2-day assay” value in series [2] (2-day assay, positive cell line) is listed as “about 1.4 nCi/ml”; in series [6] it was “about 28 nCi/ml”. Besides, the “LD50 in a 5-day assay” value in series [2] (5-day assay, specific activity of 0.035 Ci/g, 3H-thymidine incorporation) was approximately 0.3 nCi/ml. Moreover, the “225Ac Biodistribution, Blood” value in series [3] (1 d) is listed as 10.1 % dose/g; in series [3] (2 d) it was 10.2 % dose/g; in series [3] (5 d) it was 4.5 % dose/g. Moreover, the “225Ac Biodistribution, Bone” value in series [3] (1 d) is 3.8 % dose/g; in series [3] (2 d), 4.1 % dose/g; in series [3] (5 d), 5.3 % dose/g. The “225Ac Biodistribution, Kidneys” value is on record as 4.6 % dose/g in series [3] (1 d), 5.2 % dose/g in series [3] (2 d) and 4.6 % dose/g in series [3] (5 d). For the same compound, the “225Ac Biodistribution, Liver” value was found to be 8.8 % dose/g in series [3] (1 d), 10.0 % dose/g in series [3] (2 d) and 20.7 % dose/g in series [3] (5 d). Besides, in series [3], the “pattern of distribution” value was “longer blood circulation time and less bone uptake”. In series [4], the immunoreactive fraction is approximately 70%. Also, in series [5], the “isotope internalized in the target cells” value is on record as “more than 50%”.

For the compound `CC(=O)[O-].CC(=O)[O-].CC(=O)[O-].[225Ac+3]` [^225Ac Acetate, reference compound], in series [3] (1 d), the “225Ac Biodistribution, Blood” value came out at 0.1 % dose/g; the “225Ac Biodistribution, Bone” value was determined as 13.3 % dose/g; the “225Ac Biodistribution, Kidneys” value stood at 3.8 % dose/g; the “225Ac Biodistribution, Liver” value came out at 46.6 % dose/g. In addition, in series [3] (2 d), the “225Ac Biodistribution, Blood” value is on record as 0.2 % dose/g; the “225Ac Biodistribution, Bone” value came out at 12.0 % dose/g; the “225Ac Biodistribution, Kidneys” value amounted to 3.2 % dose/g; the “225Ac Biodistribution, Liver” value is 43.1 % dose/g. In series [3] (5 d), the “225Ac Biodistribution, Blood” value worked out at 0.0 % dose/g; the “225Ac Biodistribution, Bone” value amounted to 17.1 % dose/g; the “225Ac Biodistribution, Kidneys” value is listed as 2.8 % dose/g; the “225Ac Biodistribution, Liver” value came out at 68.5 % dose/g. Moreover, the “pattern of distribution” value in series [3] was “held up in the liver and bone but cleared from blood”.
